Source: patent publication US20170247326A1, “Substituted Pyrrolidine Carboxamide Compounds” (EPIZYME, INC., priority 2014, published 2017)

Each compound was assayed against T1, SMYD2 (Homo sapiens, UniProt Q9NRG4) (assay: SMYD2 biochemical assay (3H-SAM, biotinylated peptide substrate, Flashplate)). Conditions: Table 1; average of n = 1 to n = 50; read-out: SMYD2 Biochem IC50.
T1 construct: Full length SMYD2 (NP_064582.2) was cloned; His6 (N, cleaved yes); FLAG (N); made in house; host or cells: Sf9 insect cells
T1 sequence (Q9NRG4 whole entry): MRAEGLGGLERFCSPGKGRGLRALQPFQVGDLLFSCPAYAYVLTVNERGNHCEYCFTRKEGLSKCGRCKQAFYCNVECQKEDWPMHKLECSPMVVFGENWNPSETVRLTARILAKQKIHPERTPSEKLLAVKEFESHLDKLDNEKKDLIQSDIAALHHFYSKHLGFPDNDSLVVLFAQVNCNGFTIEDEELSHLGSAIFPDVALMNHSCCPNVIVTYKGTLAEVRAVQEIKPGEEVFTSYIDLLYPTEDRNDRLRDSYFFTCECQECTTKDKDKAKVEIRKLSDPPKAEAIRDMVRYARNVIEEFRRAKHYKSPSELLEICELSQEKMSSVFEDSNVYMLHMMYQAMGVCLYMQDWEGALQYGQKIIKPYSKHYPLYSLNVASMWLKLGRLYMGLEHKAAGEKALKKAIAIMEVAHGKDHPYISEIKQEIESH
From the text: S-adenosylmethionine (SAM), S-adenosylhomocysteine (SAH), bicine, Tween20, dimethylsulfoxide (DMSO), bovine skin gelatin (BSG), and Tris(2-carboxyethyl)phosphine hydrochloride (TCEP) were purchased from Sigma-Aldrich at the highest level of purity possible. ^3H-SAM was purchase from American Radiolabeled Chemicals with a specific activity of 80 Ci/mmol. 384-well streptavidin Flashplates were purchased from PerkinElmer.
Peptide was synthesized with a N-terminal linker-affinity tag motif and a C-terminal amide cap by 21st Century Biochemicals. The peptide was high high-performance liquid chromatography (HPLC) purified to greater than 95% purity and confirmed by liquid chromatography mass spectrometry (LC-MS). The sequence was […](K-Biot)-amide. (SEQ ID NO: 3)
Full length SMYD2 (NP_064582.2) was cloned into a pFastbac-Htb-lic vector with an N-terminal His6 tag and FLAG tag, preceded by a TEV protease cleavage site. The protein was expressed in Sf9 insect cells. Cells were resuspended in lysis buffer (25 mM HEPES-NaOH, pH 7.5, 200 mM NaCl, 5% glycerol, and 5 mM […] and lysed by sonication. The protein was purified by Ni-NTA (Qiagen), followed by TEV cleavage to remove the His6 tag, subtractive Ni-NTA (Qiagen), and gel filtration chromatography using an S200 column (GE Healthcare). Purified protein was stored in 20 mM Tris-HCl, pH 8.0, 100 mM NaCl, and 1 mM TCEP.
General Procedure for SMYD2 Enzyme Assays on Peptide Substrates
The assays were all performed in a buffer consisting of 20 mM Bicine (pH=7.6), 1 mM TCEP, 0.005% Bovine Skin Gelatin, and 0.002% Tween20, prepared on the day of use. Compounds in 100% DMSO (1 ul) were spotted into a polypropylene 384-well V-bottom plates (Greiner) using a Platemate Plus outfitted with a 384-channel head (Thermo Scientific). DMSO (1 ul) was added to Columns 11, 12, 23, 24, rows A-H for the maximum signal control and 1 ul of SAH, a known product and inhibitor of SMYD2, was added to columns 11, 12, 23, 24, rows I-P for the minimum signal control. A cocktail (40 ul) containing the SMYD2 enzyme was added by Multidrop Combi (Thermo-Fisher). The compounds were allowed to incubate with SMYD2 for 30 min at room temperature, then a cocktail (10 ul) containing ^3H-SAM and peptide was added to initiate the reaction (final volume=51 ul). The final concentrations of the components were as follows: SMYD2 was 1.5 nM, ^3H-SAM was 10 nM, and peptide was 60 nM, SAH in the minimum signal control wells was 1000 uM, and the DMSO concentration was 2%. The assays were stopped by the addition of non-radioactive SAM (10 ul) to a final concentration of 600 uM, which dilutes the ^3H-SAM to a level where its incorporation into the peptide substrate is no longer detectable. 50 ul of the reaction in the 384-well polypropylene plate was then transferred to a 384-well Flashplate and the biotinylated peptides were allowed to bind to the streptavidin surface for at least 1 hour before being washed three times with 0.1% Tween20 in a Biotek ELx405 plate washer. The plates were then read in a PerkinElmer TopCount plate reader to measure the quantity of ^3H-labeled peptide bound to the Flashplate surface, measured as disintegrations per minute (dpm) or alternatively, referred to as counts per minute (cpm).
Where dpm=disintegrations per minute, cmpd=signal in assay well, and min and max are the respective minimum and maximum signal controls.
Where top and bottom are the normally allowed to float, but may be fixed at 100 or 0 respectively in a 3-parameter fit. The Hill Coefficient normally allowed to float but may also be fixed at 1 in a 3-parameter fit. I is the compound concentration.
SMYD2 biochemical assay data for representative Compounds of the Disclosure are presented in Tables 1, 3, and 4 in the column titled “SMYD2 Bicohem IC50 (μM).”

| IC50 | Compound |
| --- | --- |
| > 50 µM | C[C@H]1CN(C2CC2)C[C@@H]1NC(=O)c1ccc2c(c1)CC(=O)N2 (racemic) [Cpd. No. 5, (±)-trans-N-(1-cyclopropyl-4-methylpyrrolidin-3-yl)-2-oxoindoline-5-carboxamide] |
| > 50 µM | C[C@@H]1CN(C2CC2)C[C@H]1NC(=O)c1cc(O)nn1C (racemic) [compound 15, (±)-trans-H-(1-cyclopropyl-4-methylpyrrolidin-3-yl)-3-hydroxy-1-methyl-1H-pyrazole-5-carboxamide] |
| > 50 µM | C[C@@H]1CN(C2CC2)C[C@@H]1NC(=O)c1ccc2c(c1)OC(F)(F)O2 (racemic) [compound 2, (±)-cis-N-(1-cyclopropyl-4-methylpyrrolidin-3-yl)-2,2-difluorobenzo[d][1,3]dioxole-5-carboxamide] |
| > 50 µM | C[C@H]1CN(C2CC2)C[C@H]1NC(=O)Cc1ccc2c(c1)NC(=O)CO2 (racemic) [compound 4, (±)-cis-N-(1-cyclopropyl-4-methylpyrrolidin-3-yl)-2-(3-oxo-3,4-dihydro-2H-benzo[b][1,4]oxazin-6-yl)acetamide] |
| > 50 µM | Cc1cc(C(=O)N[C@@H]2CN(C3CC3)C[C@@H]2C)n(Cc2ccccc2)n1 (racemic) [compound 10, (±)-cis-1-benzyl-N-(1-cyclopropyl-4-methylpyrrolidin-3-yl)-3-methyl-1H-pyrazole-5-carboxamide] |

Same assay, conditions: Table 3; average of n = 1 to n = 50; read-out: SMYD2 Biochem IC50

| Compound | IC50 |
| --- | --- |
| (±)-cis-N-(1-((2-aminoethyl)sulfonyl)-4-methylpyrrolidin-3-yl)-5-cyclopmpylpyridazine-3-carboxamide [compound 113] | > 50 µM |
| CC(C)N1C[C@@H](C)[C@@H](NC(=O)c2nc(C3CC3)ns2)C1 (racemic) [compound 86, (±)-cis-3-cyclopropyl-N-[4-methyl-1-(propan-2-yl)pyrrolidin-3-yl]-1,2,4-thiadiazole-5-carboxamide] | > 50 µM |
| CC(C)N1C[C@H](NC(=O)c2ccc3c(c2)NC(=O)CO3)[C@@H](C)C1 (racemic) [compound 37, (±)-trans-N-[4-methyl-1-(propan-2-yl)pyrrolidin-3-yl]-3-oxo-3,4-dihydro-2H-1,4-benzoxazine-6-carboxamide] | > 50 µM |
| CC(C)N1C[C@H](C)[C@H](NC(=O)c2ncc(C3CC3)cn2)C1 (racemic) [compound 59, (±)-cis-5-cyclopropyl-N-[4-methyl-1-(propan-2-yl)pyrrolidin-3-yl]pyrimidine-2-carboxamide] | > 50 µM |
| C[C@@H]1CN(C2CC2)C[C@H]1NC(=O)c1cccc(N2CCCC2)c1 (racemic) [compound 34, (±)-trans-N-[1-cyclopropyl-4-methylpyrrolidin-3-yl]-3-(pyrrolidin-1-yl)benzamide] | > 50 µM |
| CC(C)N1C[C@H](C)[C@H](NC(=O)c2ccc(N3CCCC3)cc2)C1 (racemic) [compound 30, (±)-cis-N-[4-methyl-1-(propan-2-yl)pyrrolidin-3-yl]-4-(pyrrolidin-1-yl)benzamide] | > 50 µM |
| CC(C)N1C[C@@H](C)[C@H](NC(=O)c2nc(C3CC3)cs2)C1 (racemic) [compound 36, (±)-trans-4-cyclopropyl-N-[4-methyl-1-(propan-2-yl)pyirolidin-3-yl]-1,3-thiazole-2-carboxamide] | > 50 µM |
| C[C@H]1CN(C2CC2)C[C@H]1NC(=O)c1cccc(N2CCCC2)c1 (racemic) [compound 31, (±)-cis-N-[1-cyclopropyl-4-methylpyrrolidin-3-yl]-3-(pyrrolidin-1-yl)benzamide] | > 50 µM |
| CC(C)N1C[C@H](C)[C@H](NC(=O)c2nccc(C3CC3)n2)C1 (racemic) [compound 60, (±)-cis-4-cyclopropyl-N-[4-methyl-1-(propan-2-yl)pyrrolidin-3-yl]pyrimidine-2-carboxamide] | > 50 µM |
| CC(C)N1C[C@H](C)[C@H](NC(=O)c2c[nH]c(C3CC3)n2)C1 (racemic) [compound 77, (±)-cis-2-cyclopropyl-N-[4-methyl-1-(propan-2-yl)pyrrolidin-3-yl]-1H-imidazole-4-carboxamide] | > 50 µM |
| CC(C)N1C[C@@H](C)[C@H](NC(=O)c2nccc(C3CC3)n2)C1 (racemic) [compound 67, (±)-trans-4-cyclopropyl-N-[4-methyl-1-(propan-2-yl)pyrrolidin-3-yl]pyrimidine-2-carboxamide] | > 50 µM |
| CC1CN(C(C)C)CC1NC(=O)c1ccn(C(C)C)n1 (racemic) [compound 44, (±)-trans-N-[4-methyl-1-(propan-2-yl)pyrrolidin-3-yl]-1-(propan-2-yl)-1H-pyrazole-3-carboxamide] | > 50 µM |

The remaining lines, values ahead:

| IC50 | Compound |
| --- | --- |
| 10.5 µM | C[C@@H]1CN(Cc2ccc(OCc3ccccc3)cc2)C[C@H]1NC(=O)c1cn(C2CC2)nn1 (racemic) [compound 97, (±)-trans-N-(1-{[4-(benzyloxy)phenyl]methyl}-4-methylpyrrolidin-3-yl)-1-cyclopropyl-1H-1,2,3-triazole-4-carboxamide] |
| 36.8 µM | CC(C)N1C[C@H](C)[C@H](NC(=O)c2n[nH]c(C3CC3)n2)C1 (racemic) [compound 84, (±)-cis-5-cyclopropyl-N-[4-methyl-1-(propan-2-yl)pyrrolidin-3-yl]-1H-1,2,4-triazole-3-carboxamide] |
| > 50 µM | CC(C)N1C[C@@H](C)[C@H](NC(=O)c2ccc(N3CCCC3)cc2)C1 (racemic) [compound 33, (±)-trans-N-[4-methyl-1-(propan-2-yl)pyrrolidin-3-yl]-4-(pyrrolidin-1-yl)benzamide] |
| > 50 µM | CC(C)N1C[C@@H](C)[C@H](NC(=O)c2ncc(C3CC3)s2)C1 (racemic) [compound 72, (±)-trans-5-cyclopropyl-N-[4-methyl-1-(propan-2-yl)pyrrolidin-3-yl]-1,3-thiazole-2-carboxamide] |
| 3.3 µM | CC(C)N1C[C@H](C)[C@H](NC(=O)c2ncc(C3CC3)s2)C1 (racemic) [compound 69, (±)-cis-5-cyclopropyl-N-[4-methyl-1-(propan-2-yl)pyrrolidin-3-yl]-1,3-thiazole-2-carboxamide] |
| 0.245 µM | CC(C)N1C[C@@H](C)[C@@H](NC(=O)c2cc(C3CC3)cnn2)C1 (stereo in doubt) [compound 101, rel-5-cyclopropyl-N-[(3R,4R)-4-methyl-1-(propan-2-yl)pyrrolidin-3-yl]pyridazine-3-carboxamide] |
| 0.781 µM | CC(C)N1C[C@H](C)[C@H](NC(=O)c2cn(C3CC3)nn2)C1 (racemic) [compound 27, (±)-cis-1-cyclopropyl-N-[4-methyl-1-(propan-2-yl)pyrrolidin-3-yl]-1H-1,2,3-triazole-4-carboxamide] |
| 13.6 µM | CC(C)N1C[C@H](C)[C@H](NC(=O)c2cc(C3CC3)c[nH]c2=O)C1 (racemic) [compound 82, (±)-cis-5-cyclopropyl-N-[4-methyl-1-(propan-2-yl)pyrrolidin-3-yl]-2-oxo-1,2-dihydropyridine-3-carboxamide] |
| 11.5 µM | CC(C)N1CC(NC(=O)c2cc(C3CC3)cnn2)CC1C (stereo not drawn) [compound 120, 5-cyclopropyl-N-(1-isopropyl-5-methylpyrrolidin-3-yl)pyridazine-3-carboxamide] |
| 1.96 µM | CC(C)N1C[C@H](C)[C@H](NC(=O)c2ncc(C3CC3)[nH]2)C1 (racemic) [compound 79, (±)-cis-5-cyclopropyl-N-[4-methyl-1-(propan-2-yl)pyrrolidin-3-yl]-1H-imidazole-2-carboxamide] |
